Experimental data: patent publication US20230242474A1, “LIPID COMPOUND AND THE COMPOSITION THEREOF” (GUANGZHOU RIBOBIO CO., LTD, priority 2020, published 2023)

Assays:
[1] = assay type: physicochemical; conditions: Table 1; for Size (nm): lipid nanoparticle of the ionizable lipid (ionizable lipid/phospholipid/PEG lipid/structural lipid 50/10/1.5/38.5 %) with mRNA; for Encapsulated percentage (%) / PDI: lipid nanoparticle of the ionizable lipid with mRNA
[2] = system: BALB/c mice; test: Transfection efficiency: in vivo bioluminescence of luciferase mRNA encapsulated by different LNP; conditions: for Average fluorescence intensity, Leg (intramuscular injection) / Average fluorescence intensity, Liver (tail vein injection): 10 μg/mice; for Total photons number, Leg: intramuscular injection
Description: All animals were kept in adaptive feeding for more than 7 days before experiments, free to uptake food and drink water during experimental period, illumination 12/12 h alternating light and dark, room temperature was 20-26° C., humidity was 40-70%.
Experimental method: female BALB/c mice, encapsulated luciferase mRNA with different LNP by four different administrations which included subcutaneous injection (under the armpit), tail vein injection, intraperitoneal injection, intramuscular injection (the tibialis anterior muscle of mouse hind leg); 3, 6, 24, 48 h after administration, applied in vivo fluorescence imaging system (brand: Bruker, model: XTREME) for bioluminescence detection, the specific steps were as follows: substrate preparation: took appropriate amount of substrate Luciferin (brand: Promega) and added saline to make a 10 mg/ml solution, avoided light, injected 100 μl solution into each mouse intraperitoneally. […] Put the anesthetized mouse into machine, set the bioluminescence setting and took the photos, captured the photograph and then adjusted the upper and lower values of photograph, then collected data on the concentrated distribution of fluorescence (e.g., fluorescence intensity, average photons number, and total photons number) and processed data. Statistical analysis: the in vivo imaging outcome were shown in the fluorescence intensity or average of total photons number of different animal in the same tested group, which were used to judge whether the fluorescence intensity or total photon number of luciferase mRNA encapsulated by different LNP were high or low.
The fluorescence intensity and total photons number reflects the transfection efficiency of LNP, the value is higher, referring to the efficiency of delivering encapsulated substance into cell by LNP is higher.

Structure (SMILES)	Size (nm) [1]	Encapsulated percentage (%) [1]	PDI [1]	Average fluorescence intensity, Leg (intramuscular injection) ([2]; 3 h after administration)	Average fluorescence intensity, Liver (tail vein injection) ([2]; 3 h after administration)	Average fluorescence intensity, Leg (intramuscular injection) ([2]; 6 h after administration)	Average fluorescence intensity, Liver (tail vein injection) ([2]; 6 h after administration)	Average fluorescence intensity, Leg (intramuscular injection) ([2]; 24 h after administration)	Average fluorescence intensity, Liver (tail vein injection) ([2]; 24 h after administration)	Total photons number, Leg ([2]; 5 μg/mice, 3 h)	Total photons number, Leg ([2]; 5 μg/mice, 6 h)	Total photons number, Leg ([2]; 5 μg/mice, 24 h)	Total photons number, Leg ([2]; 1 μg/ mice, 6 h)
CCCCCCCCCCCOC(=O)CCCCCN(CCCO)CCCCCC(=O)OCCCCCCCCCCC [A6]	171.5 nm	87.09%	0.190	60.3	11.9	40.9	9.0	19.1	12.2				
CCCCCCCCC(CCCCCCCC)OC(=O)CCCCCCCN(CCCO)CCCCCCCC(=O)OC(CCCCCCCC)CCCCCCCC [A5]	135.0 nm	90.11%	0.090	675.7	2231.2	1566.4	3738.2	892.2	73.5				
CCCCCCCCC(CCCCCCCC)OC(=O)CCCCCCCN(CCO)CCCCCCCC(=O)OC(CCCCCCCC)CCCCCCCC [A2, reference compound]	145.5 nm	87.86%	0.100	1146	5325.2	1208.2	5934.7	377.7	162.6				
CCCCC/C=C/C/C=C/CCCCCCCCN(CCO)CCCCCC(=O)OCCCCCCCCCCC [A9]	129.4 nm	93.35%	0.120	461.4	198.9	432.0	252.7	178.3	14.6				
CCCCCCOCC(COCCCCCC)NC(=O)CCCCCCCN(CCCO)CCCCCCCC(=O)OC(COCCCCCC)COCCCCCC [A25]	105.3 nm	83.60%	0.094							4.23E+08	2.49E+08	9.50E+07	
CCCCCCCCCCCCCCCCN(CCO)CCCCCC(=O)OCCCCCCCCCCC [A1]	127.7 nm	88.79%	0.090	61.3	20.4	80.6	27.80	38.9	15.9				
CCCCCCCCC(CCCCCCCC)OC(=O)CCCCCCCN(CCO)CCCCCCCC(=O)OC(COCCCCCC)COCCCCCC [A13]	96.87 nm	95.51%	0.146										3.66E+09
CCCCCCCCCCCOC(=O)CCCCCN(CCCO)CCCCCCCC(=O)OCC(COCCCCCC)(COCCCCCC)COCCCCCC [A22]	86.19 nm	96.85%	0.049							4.16E+09	5.74E+09	1.24E+09	
CCCCCCCCCCCOC(=O)CCCCCN(CCO)CCCCCCCC(=O)OCC(COCCCCCC)(COCCCCCC)COCCCCCC [A23]	74.63 nm	97.41%	0.054							4.39E+09	2.68E+09	8.00E+08	
